{"source": "patent US20250170127A1", "about": "“RE-SENSITIZING MULTIDRUG-RESISTANT (MDR) GRAM-NEGATIVE BACTERIA TO COLISTIN USING IONOPHORES” (The Regents of the University of Colorado, a body corporate, priority 2022, published 2025)", "key": {"E. coli AR-0346": {"tested_on": "E. coli AR-0346", "assay": "Colistin MIC in the absence or presence of RMA compound", "format": "cell-based", "conditions": "E. coli AR-0346", "from_the_text": "(§1) To investigate the scope of the colistin-potentiation effect of compound 3, the present inventors screened a panel of MDR Gram-negative bacteria obtained from the CDC and FDA Antibiotic Resistance Bank. These include a variety of Enterobacteriaceae spp., such as E. coli AR-0346 and AR-0538, K. pneumoniae AR-0497, Salmonella Enteritidis AR-0496, and Salmonella Typhimurium AR-0635. These strains all express the mcr genes (e.g., mcr-1, mcr-2, and mcr-4) and are resistant to colistin with its MICs of 8-16 μg/mL (Table 2). […] The only exception is Salmonella Typhimurium AR-0635, which expresses mcr-4 gene. […]. […]. Furthermore, the present inventors also tested the activity of colistin in the presence or absence of 1 μg/mL compound 3 in a wild-type E. coli K-12. […] The MICs of compound 3 in all these strains were >64 μg/mL, the highest concentration tested.\n(§2) General Methods. MDR strains E. coli AR-0493, AR-0346, and AR-0538, Salmonella Enteritidis AR-0496, Salmonella Typhimurium AR-0635, K. pneumoniae AR-0497, A. baumannii AR-0300 and AR-0310 were all obtained from the CDC & FDA Antibiotic Resistance Isolate Bank. E. coli K-12 was a gift from the Copley lab (Department of MCD Biology, University of Colorado Boulder). HeLa cells were purchased from the ATCC. All bacterial strains were grown on trypticase soy agar supplemented with 5% sheep blood (BAP). Bacteria were then cultured in Luria-Bertani (LB) medium at 35° C. until they achieve the log phase before screening or antimicrobial testing using CAMHB media. MIC, MRC, and checkerboard analyses and mammalian growth inhibition analyses in Hela cells were performed as described previously. More details are given in Supporting information."}, "[1]": {"tested_on": "Salmonella Enteritidis AR-0496", "assay": "Colistin MIC in the absence or presence of RMA compound", "format": "cell-based", "conditions": "Salmonella Enteritidis AR-0496", "from_the_text": "as §1, §2"}, "A. baumannii AR-0300": {"tested_on": "A. baumannii AR-0300", "assay": "Colistin MIC in the absence or presence of RMA compound", "format": "cell-based", "from_the_text": "as §1, §2"}, "E. coli K-12": {"tested_on": "E. coli K-12", "assay": "Colistin MIC in the absence or presence of RMA compound", "format": "cell-based", "conditions": "in the presence of 1 μg/mL of compound 3; E. coli K-12", "from_the_text": "as §1, §2"}, "E. coli AR-0493 [2]": {"tested_on": "E. coli AR-0493", "assay": "Colistin MIC in the absence or presence of RMA compound", "format": "cell-based", "conditions": "E. coli AR-0493", "from_the_text": "as §1\n(§3) To evaluate the mammalian toxicity of these analogs, Applicants tested them in cell viability assay using human cervical adenocarcinoma HeLa cells. Their respective half maximal growth inhibition concentration (GI50) was calculated using KaleidaGraph. The selectivity index (SI) for each compound was also calculated as the ratio of their GI50 and MRC. […] Therefore, Applicants selected two bisanilino analogs, 7l and 7m, that bear chlorines at the meta- and para-positions, respectively, of the phenyl groups for further characterization studies. […]. […] Their mammalian toxicities were also evaluated, and SIs calculated. […] Applicants we next explored the scope of analogs 71 and 7m their colistin-potentiating activity in 8 different MDR Gram negative bacteria with diverse genetic backgrounds and resistance mechanisms (Table 7). All strains were obtained from CDC and FDA Antibiotic Resistance Bank. For example, E. coli AR-0493 and K. pneumoniae AR-0497 carry the plasmid that contains the most prevalent mcr-1 gene. E. coli AR-0538, Salmonella Typhimurium AR-0539 and AR-0635 contain the mcr-2, 3, and 4 genes, respectively. These genes encode the phosphoethanolamine transferase, which was originated form the chromosome of A. baumannii, such as AR-0310. […]. A. baumannii AR-0310 appears more sensitive to these two compounds and the MICs of colistin was reduced to 0.25 μg/mL.\nas §2"}, "E. coli AR-0538": {"tested_on": "E. coli AR-0538", "assay": "Colistin MIC in the absence or presence of RMA compound", "format": "cell-based", "conditions": "E. coli AR-0538", "from_the_text": "as §1, §3, §2"}, "K. pneumoniae AR-0497": {"tested_on": "K. pneumoniae AR-0497", "assay": "Colistin MIC in the absence or presence of RMA compound", "format": "cell-based", "conditions": "K. pneumoniae AR-0497", "from_the_text": "as §1, §3, §2"}, "[3]": {"tested_on": "Salmonella Typhimurium AR-0635", "assay": "Colistin MIC in the absence or presence of RMA compound", "format": "cell-based", "conditions": "Salmonella Typhimurium AR-0635", "from_the_text": "as §1, §3, §2"}, "A. baumannii AR-0310": {"tested_on": "A. baumannii AR-0310", "assay": "Colistin MIC in the absence or presence of RMA compound", "format": "cell-based", "from_the_text": "as §1, §3, §2"}, "E. coli AR-0493 [4]": {"tested_on": "E. coli AR-0493", "assay": "Minimum re-sensitizing concentration (MRC) in the presence of colistin", "format": "cell-based", "conditions": "in AR-0493", "procedure": "These 10 compounds were tested for their MICs and minimum re-sensitizing concentrations (MRCs) in the presence colistin at 2 μg/mL in E. coli AR-0493.\nThe present inventors further conducted MRC screens of selected compounds from groups 2-5 in AR-0493. Compound were tested against AR-0493 with compound X+2 μg/mL Colistin.\nAll compounds were tested for their respective minimum resensitizing concentrations (MRCs) for colistin against E. coli. AR0493, a MDR strain from CDC and FDA Antibiotic Resistance Bank. […] For the symmetrical bisanilino series, 7a-p, electron-donating alkyl and alkoxy groups (entries 7a-g, Table 5) at various positions of the phenyl rings were investigated. […] Three asymmetric bisanilino analogs (7q-s, Table 5) were synthesized based on the SARs of the monoanilino analogs 8a-p (vide infra).\nas §2"}, "E. coli AR-0493 [5]": {"tested_on": "E. coli AR-0493", "assay": "Checkerboard broth microdilution assay with colistin", "format": "cell-based", "procedure": "FIG. 2. […] AR-0493. Data represent the mean OD (600 nm) in two biological replicates.\nTo further confirm the synergistic effect of compound 3 and colistin, the checkerboard broth microdilution assay was performed (FIG. 2).\nas §2"}, "[6]": {"tested_on": "MDR Gram-negative bacteria", "assay": "MICs across a panel of MDR Gram-negative bacteria (summary statements)", "format": "cell-based", "from_the_text": "as §1, §3, §2"}, "E. coli AR-0493 [7]": {"tested_on": "E. coli AR-0493", "assay": "MIC, CLSI broth microdilution, substance alone", "format": "cell-based", "conditions": "Escherichia coli, AR0493, read-out: MIC", "procedure": "A MDR E. coli strain AR-0493 (a.k.a., ATCC BAA-3170) was obtained from the CDC and FDA Antibiotic Resistance Bank and used for the initial screen. […] Considering the difficulties on the discovery of novel antimicrobial reagents against Gram-negative bacteria, we chose to screen the fragment-based library of 3,200 compounds from TimTec (Tampa, FL). […] The screen used a modified broth microdilution assay.\nThese 10 compounds were tested for their MICs and minimum re-sensitizing concentrations (MRCs) in the presence colistin at 2 μg/mL in E. coli AR-0493. […] To evaluate their toxicity in mammalian cells, the present inventors treated human epithelial adenocarcinoma HeLa cells with each compound at a wide range of concentrations. […]\nas §2"}, "P. aeruginosa AR-0768": {"tested_on": "P. aeruginosa AR-0768", "assay": "Colistin MIC in the absence or presence of RMA compound", "format": "cell-based", "from_the_text": "as §1"}, "HeLa cells": {"tested_on": "HeLa cells", "assay": "in vitro", "format": "cell-based, human", "conditions": "GI50 in HeLa / MRC in AR-0493", "procedure": "(§4) These 10 compounds were tested for their MICs and minimum re-sensitizing concentrations (MRCs) in the presence colistin at 2 μg/mL in E. coli AR-0493. […] To evaluate their toxicity in mammalian cells, the present inventors treated human epithelial adenocarcinoma HeLa cells with each compound at a wide range of concentrations.\nas §3, §2"}, "in vitro": {"assay": "in vitro", "format": "cell-based, human", "conditions": "human", "procedure": "as §4, §3, §2"}, "[8]": {"conditions": "in the presence of 1 μg/mL of compound 3"}, "[9]": {"conditions": "1 μg/mL compound 3, almost all mcr-expressing Enterobacteriaceae strains of Table 2"}}, "note": "Values joined by “and” are separate entries in the source; they are usually repeats but may differ in a detail not shown here. Identical values can stand only once.", "data": [{"smiles": "Cc1cccc(Nc2nc3nonc3nc2Nc2cccc(C)c2)c1", "note": "[Compound 3]", "values": [{"measurement": "Folds of potentiation", "setting": "E. coli AR-0346; 1 μg/mL of compound 3", "result": 16, "unit": "folds"}, {"measurement": "Colistin MIC (+3)", "setting": "E. coli AR-0346; [8]", "result": 0.5, "unit": "µg/mL"}, {"measurement": "Folds of potentiation", "setting": "[1]; 1 μg/mL of compound 3", "result": 16, "unit": "folds"}, {"measurement": "Colistin MIC (+3)", "setting": "[1]; [8]", "result": 1, "unit": "µg/mL"}, {"measurement": "Folds of potentiation", "setting": "A. baumannii AR-0300; 1 μg/mL of compound 3", "result": 32, "unit": "folds"}, {"measurement": "Colistin MIC (+3)", "setting": "A. baumannii AR-0300; [8]", "result": 0.25, "unit": "µg/mL"}, {"measurement": "Colistin MIC (+3)", "setting": "E. coli K-12", "result": 0.25, "unit": "µg/mL"}, {"measurement": "Folds of potentiation", "setting": "E. coli AR-0493 [2]; 1 μg/mL of compound 3", "result": 16, "unit": "folds"}, {"measurement": "Colistin MIC (+3)", "setting": "E. coli AR-0493 [2]; [8]", "result": 1, "unit": "µg/mL"}, {"measurement": "Folds of potentiation", "setting": "E. coli AR-0538; 1 μg/mL of compound 3", "result": 16, "unit": "folds"}, {"measurement": "Colistin MIC (+3)", "setting": "E. coli AR-0538; [8]", "result": 0.5, "unit": "µg/mL"}, {"measurement": "Folds of potentiation", "setting": "K. pneumoniae AR-0497; 1 μg/mL of compound 3", "result": 16, "unit": "folds"}, {"measurement": "Colistin MIC (+3)", "setting": "K. pneumoniae AR-0497; [8]", "result": 0.5, "unit": "µg/mL"}, {"measurement": "Folds of potentiation", "setting": "[3]; 2 μg/mL of compound 3", "result": 16, "unit": "folds"}, {"measurement": "Colistin MIC (+3)", "setting": "[3]; [8]", "result": 4, "unit": "µg/mL"}, {"measurement": "Colistin MIC (+3)", "setting": "[3]; in the presence of 2 μg/mL of compound 3", "result": "1 μg/mL and 1^c μg/mL"}, {"measurement": "Folds of potentiation", "setting": "A. baumannii AR-0310; 1 μg/mL of compound 3", "result": 32, "unit": "folds"}, {"measurement": "Colistin MIC (+3)", "setting": "A. baumannii AR-0310; [8]", "result": 0.5, "unit": "µg/mL"}, {"measurement": "MRC", "setting": "E. coli AR-0493 [4]", "result": 0.5, "unit": "µg/mL"}, {"measurement": "fractional inhibitory concentration index (FICI)", "setting": "E. coli AR-0493 [5]; compound and colistin, E. coli AR-0493", "result": "< 0.06"}, {"measurement": "potentiation of colistin in checkerboard assay", "setting": "E. coli AR-0493 [5]; mean OD (600 nm), FIG. 2", "result": "dose-dependent potentiation of colistin"}, {"measurement": "Colistin MIC (+3)", "setting": "[6]; [9]", "result": "0.5 to 1", "unit": "µg/mL"}, {"measurement": "folds of potentiation for colistin", "setting": "[6]; [9]", "result": 16, "unit": "folds"}, {"measurement": "MIC", "setting": "[6]; compound alone, all strains of Table 2, highest concentration tested", "result": "> 64", "unit": "µg/mL"}, {"measurement": "MIC", "setting": "E. coli AR-0493 [7]", "result": "> 64", "unit": "µg/mL"}, {"measurement": "Folds of potentiation", "setting": "P. aeruginosa AR-0768; 1 μg/mL of compound 3", "result": 4, "unit": "folds"}, {"measurement": "Colistin MIC (+3)", "setting": "P. aeruginosa AR-0768; [8]", "result": 4, "unit": "µg/mL"}, {"measurement": "SI (Selective Index), ratio of GI50 and MRC", "setting": "HeLa cells", "result": 30}, {"measurement": "GI50 at 24 h", "setting": "in vitro", "result": 15, "unit": "µg/mL"}]}]}
